Assay results reported in PMC6895180 (Nature Communications, 2019).
Several values for one entry are separate records, joined by “and”; a condition that tells them apart may be missing. Identical values can stand only once. Like-named read-outs stand apart in the source and are kept apart here. Marks after values point to notes of the source that are not given here.

Legend:
[1] = Metabolic stability, rat liver microsomes (phase I and II)
Procedure: (§1) Mouse, rat, and pooled human liver microsomes were purchased from a commercial source (Corning) and stored at -80 °C. NADPH generating system solutions A and B and UGT reaction mix solutions A and B (Corning) were kept at -20°C. The test compound and the reference compounds diclofenac (MW […]
(§2) microsomal stability assay was carried out based on the BD Biosciences Guidelines for Use (TF000017 Rev1.0) with minor adaptations. Metabolic stability of the compounds was studied through the CYP450 superfamily (phase I metabolism) by fortification with reduced nicotinamide adenine dinucleotide phosphate (NADPH) and through uridine glucuronosyl-transferase (UGT) enzymes (phase II metabolism) by fortification with uridine diphosphate glucuronic acid (UDPGA). For the CYP450 and other NADPH dependent enzymes, both compounds were incubated at 5 µM together with 0.5 mg mL-1 liver microsomes in potassium phosphate buffer in a reaction started by the addition of 1 mM NADPH […]
(§3) At these time points, 20 µL was withdrawn from the reaction mixture and 80 µL cold acetonitrile (ACN) containing the internal standard tolbutamide, was added to inactivate the enzymes and precipitate the proteins. The mixture was vortexed for 30 s and centrifuged at 4 °C for 5 min at 15,000 rpm. The supernatant was stored at -80°C until analysis. For the UGT enzymes, both compounds were incubated at 5 µM together with 0.5 mg mL-1 liver microsomes in a reaction started by the addition of 2 mM UDPGA cofactor. The corresponding loss of parent compound was determined using liquid chromatography (UPLC) (Waters AquityTM) coupled with tandem quadrupole mass spectrometry (MS²) (Waters XevoTM), equipped with an electrospray ionization (ESI) interface and operated in multiple reaction monitoring (MRM) mode. […]

[2] = Metabolic stability, mouse liver microsomes (phase I and II)
Procedure: as §1, §2, §3

[3] = Metabolic stability, pooled human liver microsomes (phase I and II)
Procedure: as §1, §2, §3

[4] = test system: Lister 427WT T. b. brucei; test: Adenosine deaminase susceptibility (drug sensitivity with/without 2 µM deoxycoformycin); type: cell-based, Trypanosoma brucei brucei
Procedure: Drug susceptibility tests with Lister 427WT, TbAT1-KO[48], B48[26] and ISMR1[27] were performed using an assay based on the viability indicator dye resazurin in 96-well plates, each well containing 2 × 10^4 cells. The plates were incubated for 48 h with a doubling dilution series of the test compounds in HMI-9/fetal bovine serum at 37 °C/5% CO2 (23 dilutions starting at 100 µM, except for the pentamidine control (50 µM)), after which resazurin (20 µL of 125 µg mL^−1 resazurin sodium salt solution was added to each well (containing 200 µL of cells and test compound)) was added to each well and the plates incubated for another 24 h. Fluorescence was determined using a FLUOstar Optima (BMG Labtech, Durham, NC) and the results fitted to a sigmoid curve with variable slope using Prism 5.0 or Prism 7.04 (GraphPad, San Diego, CA). […]
Adenosine deaminase susceptibility
in the presence or absence of 2 µM 2’-deoxycoformycin. […]

[5] = test system: B48: pentamidine, diminazene and melaminophenyl arsenical resistant T. brucei line; test: microbe, parasite or virus in culture; type: cell-based, Trypanosoma brucei brucei; details: for EC50: Trypanosoma brucei; for RF (B48): resistance factor vs Lister 427WT
[6] = test system: T. b. brucei Lister 427WT; test: Drug susceptibility test (resazurin), Lister 427WT; type: cell-based, Trypanosoma brucei brucei; details: Trypanosoma brucei
Procedure: (§4) Drug susceptibility tests with Lister 427WT, TbAT1-KO[48], B48[26] and ISMR1[27] were performed using an assay based on the viability indicator dye resazurin in 96-well plates, each well containing 2 × 10^4 cells. The plates were incubated for 48 h with a doubling dilution series of the test compounds in HMI-9/fetal bovine serum at 37 °C/5% CO2 (23 dilutions starting at 100 µM, except for the pentamidine control (50 µM)), after which resazurin (20 µL of 125 µg mL^−1 resazurin sodium salt solution was added to each well (containing 200 µL of cells and test compound)) was added to each well and the plates incubated for another 24 h. Fluorescence was determined using a FLUOstar Optima (BMG Labtech, Durham, NC) and the results fitted to a sigmoid curve with variable slope using Prism 5.0 or Prism 7.04 (GraphPad, San Diego, CA).

[7] = test system: TbAT1-KO: T. brucei cell line lacking the TbAT1(P2) transporter gene; test: microbe, parasite or virus in culture; type: cell-based, Trypanosoma brucei brucei; details: for EC50: Trypanosoma brucei; for RF (TbAT1-KO): resistance factor: ratio of EC50 of resistant and Lister 427WT
Procedure: as §4

[8] = test system: ISMR1: isometamidium-resistant T. brucei cell line; test: microbe, parasite or virus in culture; type: cell-based, Trypanosoma brucei brucei; details: for EC50: Trypanosoma brucei; for RF (ISMR1): resistance factor vs Lister 427WT
Procedure: as §4

T. b. brucei Squib 427 = test: Mouse model of acute HAT; details: Suramin 10 mg/kg sid IP
Procedure: Drinking water and food were available ad libitum throughout the experiment. […] The reference drug suramin was formulated in phospahte-buffered saline (PBS) at 2.5 mg mL^−1 and administered s.i.d. i.p. for 5 days at 10 mg kg^−1 (n = 3). All treatments were initiated 30 min prior to the i.p. infection. […] Parasitaemia was determined by microscopic evaluation of tail vein blood samples at 4, 7, 10, 14 and 21 dpi (pre-set endpoint). As a test of cure, blood samples (250 µL) were collected from treated mice at 21 dpi and were sub-inoculated i.p. in naive Swiss mice (n = 3), followed by monitoring of parasitaemia as follow-up.

[9] = mean and SEM, n = 3, read-out: B48 EC50
[10] = source data, read-out: B48 EC50, AVG
[11] = source data, read-out: s427 EC50, AVG
[12] = read-out: TbAT1-KO EC50, AVG, source data
[13] = read-out: TbAT1-KO EC50, mean and SEM, n = 3
[14] = mean and SEM, n = 3, read-out: ISMR1 EC50
[15] = source data, read-out: ISMR1 EC50, AVG

Q: With `O=C(O)Cc1ccccc1Nc1c(Cl)cccc1Cl` [Diclo, diclofenac, reference compound] as the compound, how does the “% parent compound remaining” value ([1]; CYP - NADPH, 15 min) read?
A: 59±9%

Q: And the “% parent compound remaining” value ([1]; CYP - NADPH, 30 min)?
A: 39±2.6%

Q: What about the “% parent compound remaining” value ([1]; CYP - NADPH, 60 min) of the same compound?
A: 10±2.9%

Q: What about the “% parent compound remaining” value ([1]; UGT Enzymes, 15 min) of the same compound?
A: 28±4.5%

Q: And the “% parent compound remaining” value ([1]; UGT Enzymes, 30 min)?
A: 14±1.5%

Q: What about the “% parent compound remaining” value ([1]; UGT Enzymes, 60 min) of the same compound?
A: 11±0.9%

Q: And the “% parent compound remaining” value ([2]; CYP - NADPH, 15 min)?
A: 83±14%

Q: What about the “% parent compound remaining” value ([2]; CYP - NADPH, 30 min) of the same compound?
A: 67±5.7%

Q: What about the “% parent compound remaining” value ([2]; CYP - NADPH, 60 min) of the same compound?
A: 52±0.3%

Q: And the “% parent compound remaining” value ([2]; UGT Enzymes, 15 min)?
A: 42±21%

Q: What about the “% parent compound remaining” value ([2]; UGT Enzymes, 30 min) of the same compound?
A: 46±10%

Q: And the “% parent compound remaining” value ([2]; UGT Enzymes, 60 min)?
A: 34±9%

Q: And the “% parent compound remaining” value ([3]; CYP - NADPH, 15 min)?
A: 35±0.4%

Q: And the “% parent compound remaining” value ([3]; CYP - NADPH, 30 min)?
A: 14±0.8%

Q: What about the “% parent compound remaining” value ([3]; CYP - NADPH, 60 min) of the same compound?
A: 2±0.4%

Q: What about the “% parent compound remaining” value ([3]; UGT Enzymes, 15 min) of the same compound?
A: 17±1.1%

Q: And the “% parent compound remaining” value ([3]; UGT Enzymes, 30 min)?
A: 14±0.7%

Q: What about the “% parent compound remaining” value ([3]; UGT Enzymes, 60 min) of the same compound?
A: 10±0.1%

Q: Which EC50 ([4]; DCF +, single replicate, read-out: EC50) does the source give for `Nc1ncnc2c1ncn2[C@@H]1O[C@H](CO)C[C@H]1O` [Cordycepin (3)] here?
A: 5.51 nM and 1.22 nM and 4.17 nM

Q: What about the EC50 ([4]; DCF -, single replicate, read-out: EC50) of the same compound?
A: 169 nM and 509 nM and 634 nM

Q: And the EC50 ([4]; Trypanosoma brucei, DCF +, average of replicates, read-out: EC50 AVG)?
A: 3.63 nM

Q: What about the EC50 ([4]; Trypanosoma brucei, DCF +, read-out: EC50 Reported value) of the same compound?
A: 3.6 ± 1 nM

Q: And the EC50 ([4]; Trypanosoma brucei, DCF -, average of replicates, read-out: EC50 AVG)?
A: 437 nM

Q: And the EC50 ([4]; Trypanosoma brucei, DCF -, read-out: EC50 Reported value)?
A: 440 ± 110 nM

Q: For `CC[n+]1c(-c2ccccc2)c2cc(N/N=N/c3cccc(C(=N)N)c3)ccc2c2ccc(N)cc21` [Isometamidium, reference compound], which EC50 [5, 9] is on record?
A: 560 ± 130 nM

Q: And the EC50 [5, 10]?
A: 514 nM

Q: What about the “RF (B48)” value [5] of the same compound?
A: 0.85

Q: What about the EC50 ([6]; read-out: Lister 427 EC50, mean and SEM, n = 3) of the same compound?
A: 650 ± 85 nM

Q: And the EC50 [6, 11]?
A: 758 nM

Q: What about the EC50 [7, 12] of the same compound?
A: 736 nM

Q: And the EC50 [7, 13]?
A: 750 ± 140 nM

Q: And the “RF (TbAT1-KO)” value [7]?
A: 1.2

Q: And the EC50 [8, 14]?
A: 3100 ± 500 nM

Q: And the EC50 [8, 15]?
A: 5050 nM

Q: What about the “RF (ISMR1)” value [8] of the same compound?
A: 4.8***

Q: Which results are given for `N=C(N)c1ccc(/N=N/Nc2ccc(C(=N)N)cc2)cc1` [Diminazene, reference compound]?
A: EC50 [5, 9]: 7200 ± 1600 nM; EC50 [5, 10]: 7150 nM; RF (B48) [5]: 16.9***; EC50 ([6]; mean and SEM, n = 3, read-out: Lister 427 EC50): 420 ± 64 nM; EC50 [6, 11]: 423 nM; EC50 [7, 12]: 4470 nM; EC50 [7, 13]: 4500 ± 900 nM; RF (TbAT1-KO) [7]: 10.6***; EC50 [8, 14]: 2900 ± 400 nM; EC50 [8, 15]: 2920 nM; RF (ISMR1) [8]: 6.9***

Q: For `Cc1ccc(C(=O)Nc2ccc(S(=O)(=O)O)c3cc(S(=O)(=O)O)cc(S(=O)(=O)O)c23)cc1NC(=O)c1cccc(NC(=O)Nc2cccc(C(=O)Nc3cc(C(=O)Nc4ccc(S(=O)(=O)O)c5cc(S(=O)(=O)O)cc(S(=O)(=O)O)c45)ccc3C)c2)c1` [suramin, reference compound], which “parasitaemia, individual mice” value (T. b. brucei Squib 427; 4 dpi) is on record?
A: 0

Q: And the “parasitaemia, individual mice” value (T. b. brucei Squib 427; 7 dpi)?
A: 0

Q: And the “parasitaemia, individual mice” value (T. b. brucei Squib 427; 10 dpi)?
A: 0

Q: What about the “parasitaemia, individual mice” value (T. b. brucei Squib 427; 14 dpi) of the same compound?
A: 0

Q: And the “parasitaemia, individual mice” value (T. b. brucei Squib 427; 21 dpi)?
A: 0
